According to patent US20100324285A1, “ANTIINFLAMMATORY AGENT COMPRISING 2-AMINOPHENOL OR DERIVATIVE THEREOF AS ACTIVE INGREDIENT” (priority 2006, published 2010):
Where two headings read alike, the source gives them in different places.

Legend:
COX-1 = target: T1, COX-1 (Ovis aries, UniProt P05979); experiment: COX Inhibitor Screening Assay Kit, COX-1; format: biochemical
T1 construct: purchased Cayman Chemical Company
T1 sequence (P05979 25-600): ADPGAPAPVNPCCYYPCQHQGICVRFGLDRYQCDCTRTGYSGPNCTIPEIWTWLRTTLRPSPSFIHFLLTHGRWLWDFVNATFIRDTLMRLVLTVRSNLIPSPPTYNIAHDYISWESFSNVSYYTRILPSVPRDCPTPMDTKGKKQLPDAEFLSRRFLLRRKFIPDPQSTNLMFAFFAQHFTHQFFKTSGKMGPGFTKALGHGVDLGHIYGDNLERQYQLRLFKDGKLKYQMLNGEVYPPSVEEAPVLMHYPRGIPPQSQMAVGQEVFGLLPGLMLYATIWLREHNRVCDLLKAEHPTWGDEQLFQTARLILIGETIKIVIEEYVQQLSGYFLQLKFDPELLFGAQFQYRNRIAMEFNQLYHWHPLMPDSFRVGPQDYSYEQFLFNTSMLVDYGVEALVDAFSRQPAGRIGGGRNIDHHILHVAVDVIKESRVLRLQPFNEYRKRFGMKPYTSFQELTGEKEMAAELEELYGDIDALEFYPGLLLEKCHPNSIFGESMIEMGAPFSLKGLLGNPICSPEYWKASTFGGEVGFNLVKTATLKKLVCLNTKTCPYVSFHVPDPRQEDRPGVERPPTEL
Excerpt: (§1) Fifty percent inhibitory concentration (IC50) means the concentration of test sample necessary for inhibiting PGE2 synthesis by 50% compared to non-inhibitory control sample. It can be also determined by measuring the amount of PGE2 produced by adding test samples to cells having cyclooxygenase activity. COX-1/COX-2 ratio means the ratio of […], and the higher the ratio is, the more specific to COX-2 the agent is.
(§2) To verify the results of Experiment 2, it was investigated that whether the activity of COXs, essential enzymes for PGE2 synthesis system, can be inhibited. […] An experimental system without the test samples was set as control. The residual activity of COX-1 or COX-2 was determined as relative activity versus control.

COX-2 [1] = target: T2, COX-2 (Homo sapiens, UniProt P35354); experiment: COX Inhibitor Screening Assay Kit, COX-2; format: biochemical
T2 sequence (P35354 18-604): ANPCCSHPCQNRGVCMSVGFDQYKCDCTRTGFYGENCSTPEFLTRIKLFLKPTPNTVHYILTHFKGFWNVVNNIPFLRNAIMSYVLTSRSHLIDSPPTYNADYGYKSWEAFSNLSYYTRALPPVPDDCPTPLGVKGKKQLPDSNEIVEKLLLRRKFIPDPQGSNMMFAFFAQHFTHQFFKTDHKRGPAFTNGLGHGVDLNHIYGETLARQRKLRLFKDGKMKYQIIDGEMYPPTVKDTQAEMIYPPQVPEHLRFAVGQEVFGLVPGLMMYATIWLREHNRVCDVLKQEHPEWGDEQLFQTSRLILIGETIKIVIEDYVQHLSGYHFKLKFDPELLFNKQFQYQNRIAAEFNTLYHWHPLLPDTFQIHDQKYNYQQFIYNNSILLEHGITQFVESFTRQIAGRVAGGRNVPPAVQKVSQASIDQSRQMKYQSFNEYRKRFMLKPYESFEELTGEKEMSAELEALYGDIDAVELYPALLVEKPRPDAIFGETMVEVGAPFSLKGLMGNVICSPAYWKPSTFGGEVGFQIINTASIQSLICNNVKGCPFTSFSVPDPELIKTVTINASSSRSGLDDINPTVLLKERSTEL
Excerpt: as §1, §2

[2] = test system: Mouse melanoma cell line B16; experiment: Melanin synthesis in B16 cells; format: cell-based; conditions: for Amount of melanin (%): 5 days, per mg protein versus control
Method: (§3) As control, a system with no test sample was provided. […] The amount of protein was measured by conventional Bradfordmethod and the amount of melanin per 1 mg of protein was calculated. The amount of melanin (%) was calculated according to Formula 4, and the living cell rate (%) was calculated according to Formula 5.
As control, a system with no test sample was provided. […] The amount of protein was measured by conventional Bradford method and the amount of melanin per 1 mg of protein was calculated. The amount of melanin (%) was calculated according to Formula 4.

[3] = test system: Mouse melanoma cell line B16; experiment: Living cell rate of B16 cells; conditions: 5 days, versus control
Method: as §3

RAW264.7 cells [4] = experiment: NO production by macrophage RAW264.7, Griess method; format: cell-based, mouse; conditions: LPS + IFN-γ, 2 days, relative level versus control
Excerpt: As macrophage cells, RAW264.7 cell strain from mouse or macrophage cells obtained from laboratory animals such as mouse can be used. The amount of produced NO can be measured by conventional Griess method. […] RAW264.7 cells, a murine macrophage cell strain, were suspended in PRMI1640 medium supplied with 10% (v/v) fetal calf serum (hereinafter abbreviated as “FCS”) to give a cell suspension with a cell concentration of 1×10^6 cells/ml. […] The experimental system without the test samples described above was set as control. […] NO production, PGE2 production and macrophage growth are indicated as relative levels versus controls.

RAW264.7 cells [5] = experiment: PGE2 production by macrophage RAW264.7, PGE2-EIA kit; format: cell-based, mouse; conditions: LPS + IFN-γ, 2 days, relative level versus control
Excerpt: (§4) RAW264.7 cells, a murine macrophage cell strain, were suspended in PRMI1640 medium supplied with 10% (v/v) fetal calf serum (hereinafter abbreviated as “FCS”) to give a cell suspension with a cell concentration of 1×10^6 cells/ml. […] The experimental system without the test samples described above was set as control. […] NO production, PGE2 production and macrophage growth are indicated as relative levels versus controls.

RAW264.7 cells [6] = experiment: Macrophage growth, living cell count; format: cell-based, mouse; conditions: 2 days, relative level versus control
Excerpt: as §4

COX-2 [7] = target: T2, COX-2; conditions: nonsteroidal COX inhibitors, comparison values, source not given; cited from earlier work
[8] = read-out: residual activity of COX-1
[9] = read-out: residual activity of COX-2

Nc1ccccc1O [2-Aminophenol]
IC50 (COX-1): 28 µM | remaining activity at 8 µM (COX-1; [8]): 66% | remaining activity at 16 µM (COX-1; [8]): 73% | remaining activity at 32 µM (COX-1; [8]): 42% | IC50 (COX-2 [1]): 27.7 µM | COX-1/COX-2 ratio (COX-2 [1]; ratio of IC50 values of Table 2): about 1 | remaining activity at 8 µM (COX-2 [1]; [9]): 72% | remaining activity at 16 µM (COX-2 [1]; [9]): 60% | remaining activity at 32 µM (COX-2 [1]; [9]): 47% | Amount of melanin (%) ([2]; 1 μM): 62% | Amount of melanin (%) ([2]; 2 μM): 55% | Amount of melanin (%) ([2]; 4 μM): 50% | inhibiting effect on melanin production higher than that of kojic acid ([2]; in the concentration at which the cell-growth was not inhibited): 1.000 fold | Living cell rate (%) ([3]; 1 μM): 95% | Living cell rate (%) ([3]; 2 μM): 79% | Living cell rate (%) ([3]; 4 μM): 52%

CC(=O)Oc1ccccc1C(=O)O [AS, aspirin]
NO production (%) (RAW264.7 cells [4]; 0.16 μM): 101% | NO production (%) (RAW264.7 cells [4]; 0.31 μM): 102% | NO production (%) (RAW264.7 cells [4]; 0.63 μM): 102% | NO production (%) (RAW264.7 cells [4]; 1.3 μM): 93% | NO production (%) (RAW264.7 cells [4]; 2.5 μM): 95% | NO production (%) (RAW264.7 cells [4]; 5.0 μM): 90% | NO production (%) (RAW264.7 cells [4]; 10 μM): 86% | PGE2 production (%) (RAW264.7 cells [5]; 0.16 μM): 98% | PGE2 production (%) (RAW264.7 cells [5]; 0.31 μM): 99% | PGE2 production (%) (RAW264.7 cells [5]; 0.63 μM): 79% | PGE2 production (%) (RAW264.7 cells [5]; 1.3 μM): 47% | PGE2 production (%) (RAW264.7 cells [5]; 2.5 μM): 33% | PGE2 production (%) (RAW264.7 cells [5]; 5.0 μM): 8% | PGE2 production (%) (RAW264.7 cells [5]; 10 μM): 3% | Macrophage growth (%) (RAW264.7 cells [6]; 0.16 μM): 103% | Macrophage growth (%) (RAW264.7 cells [6]; 0.31 μM): 100% | Macrophage growth (%) (RAW264.7 cells [6]; 0.63 μM): 95% | Macrophage growth (%) (RAW264.7 cells [6]; 1.3 μM): 85% | Macrophage growth (%) (RAW264.7 cells [6]; 2.5 μM): 86% | Macrophage growth (%) (RAW264.7 cells [6]; 5.0 μM): 89% | Macrophage growth (%) (RAW264.7 cells [6]; 10 μM): 89% | COX-1/COX-2 ratio (COX-2 [7]): 0.24
